For assay [1], the target named is PLK4 (h) (Homo sapiens, UniProt O00444). Put plainly: PLK-4 human kinase assay (SPA). Format: biochemical. The conditions noted are these: read-out: PLK4 pIC50 (converted). Summed up:
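Radiometric readout: 33P-labelled peptide captured on streptavidin SPA beads after EDTA stop, imaged by Leadseeker. Reaction ran 60 min at room temperature in Hepes pH 8.0 buffer. It contained 1 μM ATP with 2 nM [γ-33P]ATP, 10 μM biotinylated peptide and PLK4 (h) at 19 μg/ml.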

Assay [2] concerns U87MG. Put plainly: Cellular proliferation assay (Alamar blue), U87MG. Type of assay: cell-based. As to conditions: Homo sapiens, U-87 MG, 72 h, U87MG cells, 72 hours with compound, 10% FCS, read-out: pIC50 U87MG (converted). Put shortly: (§1)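 Proliferation was assessed over 72 h of compound treatment, following 24 h of seeding without compound, under 10% FCS, 37° C. and 5% CO2. Fluorescent resazurin product was measured and compared with control cells.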

Assay [3] deals with H1299. Put plainly: Cellular proliferation assay (Alamar blue), H1299. Type of assay: cell-based. The conditions noted are these: Homo sapiens, NCI-H1299, 72 h, H1299 cells, 72 hours with compound, 10% FCS, read-out: pIC50 H1299 (converted). Summed up: as §1
Assay [4] has as its system PC-3. Put plainly: Cellular proliferation assay (Alamar blue), PC-3. The conditions noted are these: Homo sapiens, PC-3, 72 h, PC-3 cells, 72 hours with compound, 10% FCS, read-out: pIC50 PC-3 (converted). Format: cell-based. Summed up: as §1
(In general: The colour change of resazurin is a common sign of viable cells or microbes.)

Assay [5] deals with CDK1/CyclinB (h) (Homo sapiens, UniProt P06493). Put plainly: CDK1/CyclinB human kinase assay (FRET). Type of assay: biochemical. The conditions noted are these: read-out: CDK1 pIC50 (converted). Summed up:
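Z'-LYTE FRET format: 0.2 μg/ml enzyme with 2 μM Ser/Thr peptide 12 and 10 μM ATP in 50 mM Hepes pH 7.5, 10 mM MgCl2, 1 mM EGTA, 0.01% Brij-35, 60 min at room temperature. Protease development 60 min; coumarin/fluorescein emission ratio (460/538 nm, excitation 390 nm) reports phosphorylation.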

Assay [6] concerns A2780. Put plainly: Cellular proliferation assay (Alamar blue), A2780. Type of assay: cell-based. As to conditions: Homo sapiens, A2780, 72 h, A2780 cells, 72 hours with compound, 10% FCS, read-out: pIC50 A2780 (converted). Summed up: as §1
In assay [7] the target is GSK3β (h) (Homo sapiens, UniProt P49841). Put plainly: GSK-3β human kinase assay (SPA). Format: biochemical. The conditions noted are these: read-out: GSK3B pIC50 (converted). Put shortly:
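Radiometric SPA read-out: after EDTA stop, biotinylated 33P-labelled peptide bound streptavidin PVT beads and was imaged on Leadseeker. Reaction: 60 min, room temperature, GSK3β (h) at 1 μg/ml, 1 μM substrate peptide, 1 μM ATP with 2 nM [γ-33P]ATP, Tris pH 7.4/MgCl2/DTT buffer.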

The target of assay [8] is AuroraB (h) (Homo sapiens, UniProt Q96GD4). Put plainly: Aurora-B human kinase assay (SPA). Format: biochemical. As to conditions: read-out: AuroraB pIC50 (converted). Put shortly:
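Scintillation proximity assay: AuroraB (h) at 0.5 μg/ml with 3 μM biotinylated peptide, 0.5 μM ATP and 2.2 nM [γ-33P]ATP in 60 mM Hepes pH 7.5, 3 mM MgCl2, 3 mM MnCl2, 2 mM DTT. 60 min at room temperature, EDTA stop, streptavidin PVT beads read on Leadseeker.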

Assay [9] has as its system MDA/MB231. Put plainly: Cellular proliferation assay (Alamar blue), MDA/MB231. The conditions noted are these: Homo sapiens, MDA-MB-231, 72 h, MDA/MB231 cells, 72 hours with compound, 10% FCS, read-out: pIC50 MDA/MB231 (converted). Type of assay: cell-based. Summed up:
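Viable cell counts come from an Alamar blue assay: resazurin 9 μg/ml plus 90 μM K-ferrocyanide and 90 μM K-ferricyanide, incubated 24 h for MDA-MB-231 or 4 h for H460, with fluorescence read at 544/590 nm. Compound treatment lasted 72 h in 10% FCS after 24 h seeding.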

In assay [10] the test system is HCT-116. Put plainly: Cellular proliferation assay (Alamar blue), HCT-116. Format: cell-based. The conditions noted are these: Homo sapiens, HCT-116, 72 h, HCT-116 cells, 72 hours with compound, 10% FCS, read-out: pIC50 HCT-116 (converted). Put shortly: as §1

Bounds are passed on as bounds.

GSK3β (h), sequence (P49841 whole entry): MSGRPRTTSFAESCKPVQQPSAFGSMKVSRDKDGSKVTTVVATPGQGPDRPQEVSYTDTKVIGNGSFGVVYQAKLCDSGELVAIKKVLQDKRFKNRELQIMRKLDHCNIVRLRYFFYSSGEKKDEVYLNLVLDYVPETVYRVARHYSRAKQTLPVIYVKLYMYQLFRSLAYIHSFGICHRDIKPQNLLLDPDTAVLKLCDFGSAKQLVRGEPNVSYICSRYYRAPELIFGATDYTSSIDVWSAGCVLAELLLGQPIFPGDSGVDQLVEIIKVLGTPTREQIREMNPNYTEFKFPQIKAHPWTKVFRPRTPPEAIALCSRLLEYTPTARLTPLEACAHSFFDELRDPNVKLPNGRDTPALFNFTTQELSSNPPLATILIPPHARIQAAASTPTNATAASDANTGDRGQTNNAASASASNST
PLK4 (h), sequence (O00444 whole entry): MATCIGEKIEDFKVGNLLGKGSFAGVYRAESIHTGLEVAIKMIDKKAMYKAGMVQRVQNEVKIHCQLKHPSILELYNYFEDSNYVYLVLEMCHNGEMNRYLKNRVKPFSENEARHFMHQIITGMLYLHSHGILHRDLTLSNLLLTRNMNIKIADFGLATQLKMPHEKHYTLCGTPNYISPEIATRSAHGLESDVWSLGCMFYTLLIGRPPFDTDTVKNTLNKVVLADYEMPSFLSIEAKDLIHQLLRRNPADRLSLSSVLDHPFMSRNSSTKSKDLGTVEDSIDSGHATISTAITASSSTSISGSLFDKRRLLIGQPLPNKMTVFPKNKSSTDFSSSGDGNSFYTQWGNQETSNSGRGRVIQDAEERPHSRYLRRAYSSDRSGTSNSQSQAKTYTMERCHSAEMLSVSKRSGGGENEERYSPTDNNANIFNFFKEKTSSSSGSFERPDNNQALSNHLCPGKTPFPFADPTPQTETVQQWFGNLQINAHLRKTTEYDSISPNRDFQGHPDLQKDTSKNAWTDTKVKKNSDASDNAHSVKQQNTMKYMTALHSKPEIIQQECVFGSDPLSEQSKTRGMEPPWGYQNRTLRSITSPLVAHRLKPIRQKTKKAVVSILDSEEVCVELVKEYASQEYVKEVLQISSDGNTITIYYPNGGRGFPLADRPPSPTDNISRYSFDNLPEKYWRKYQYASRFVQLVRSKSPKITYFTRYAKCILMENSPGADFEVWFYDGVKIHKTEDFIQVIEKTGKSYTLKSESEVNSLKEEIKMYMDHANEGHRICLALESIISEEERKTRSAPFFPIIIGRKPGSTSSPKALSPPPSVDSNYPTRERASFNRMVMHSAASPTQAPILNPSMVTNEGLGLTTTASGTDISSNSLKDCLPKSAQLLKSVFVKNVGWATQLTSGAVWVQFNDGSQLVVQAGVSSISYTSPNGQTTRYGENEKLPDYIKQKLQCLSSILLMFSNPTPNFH
CDK1/CyclinB (h), sequence (P06493 whole entry): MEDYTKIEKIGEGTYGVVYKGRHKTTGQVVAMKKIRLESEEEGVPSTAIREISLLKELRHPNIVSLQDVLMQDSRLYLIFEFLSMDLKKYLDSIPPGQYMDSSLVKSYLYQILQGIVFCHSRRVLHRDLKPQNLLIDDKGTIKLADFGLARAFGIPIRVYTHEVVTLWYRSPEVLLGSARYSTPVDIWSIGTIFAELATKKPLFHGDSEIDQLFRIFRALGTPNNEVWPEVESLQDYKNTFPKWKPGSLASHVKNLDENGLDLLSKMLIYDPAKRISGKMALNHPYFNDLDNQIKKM
CDK1/CyclinB (h), sequence (P14635 whole entry partner): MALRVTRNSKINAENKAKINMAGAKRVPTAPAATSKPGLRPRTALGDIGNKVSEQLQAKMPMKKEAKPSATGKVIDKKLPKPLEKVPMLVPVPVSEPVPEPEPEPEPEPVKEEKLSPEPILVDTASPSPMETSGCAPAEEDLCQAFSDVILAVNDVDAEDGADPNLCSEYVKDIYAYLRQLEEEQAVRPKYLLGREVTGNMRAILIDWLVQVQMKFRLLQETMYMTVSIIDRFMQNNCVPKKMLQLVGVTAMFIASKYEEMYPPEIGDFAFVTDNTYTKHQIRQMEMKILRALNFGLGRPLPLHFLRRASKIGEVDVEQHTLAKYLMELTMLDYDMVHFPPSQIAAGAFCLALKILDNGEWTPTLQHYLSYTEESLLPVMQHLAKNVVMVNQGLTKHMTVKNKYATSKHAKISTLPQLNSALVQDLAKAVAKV
AuroraB (h), sequence (Q96GD4 whole entry): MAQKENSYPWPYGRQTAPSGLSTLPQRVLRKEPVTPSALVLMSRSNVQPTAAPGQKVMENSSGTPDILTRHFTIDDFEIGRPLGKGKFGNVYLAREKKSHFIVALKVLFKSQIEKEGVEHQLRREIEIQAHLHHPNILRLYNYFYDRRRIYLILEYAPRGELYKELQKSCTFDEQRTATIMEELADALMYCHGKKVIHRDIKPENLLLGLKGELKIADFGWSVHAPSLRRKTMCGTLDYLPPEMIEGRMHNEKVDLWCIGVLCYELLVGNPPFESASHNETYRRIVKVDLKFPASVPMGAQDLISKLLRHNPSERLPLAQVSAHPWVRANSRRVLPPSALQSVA

Regarding `CN1CCNC(=O)CCCCCCOc2cccc(c2)N/C=C2\C(=O)Nc3ncnc1c32` [Compound 36], the IC50 in [1] was 2240 nM; in assay [2], more than 10 µM; in assay [3], more than 10 µM; in assay [4], more than 10 µM; in [5] it was more than 10 µM; in assay [6], more than 10 µM. The IC50 in [7] was 2000 nM; in assay [8] it was more than 10 µM; in assay [9], more than 10 µM; in [10], more than 10 µM.
Take `COc1ccc2cc1OCCCCCC(=O)N(C)CCNc1ncnc3c1/C(=C/N2)C(=O)N3` [Compound 37]: the IC50 in assay [1] was 550 nM; in assay [2] it was 1.82 µM; in assay [3], 3.16 µM; in [4], 9.55 µM; in assay [5] it was 2.14 µM; in assay [6], 7.59 µM. The IC50 in assay [7] was 85.1 nM; in [8], 0.214 µM; in assay [9] it was more than 10 µM; in assay [10], 6.03 µM.
As for `COc1ccc2cc1OCCCC(=O)NCCN(C)c1ncnc3c1/C(=C/N2)C(=O)N3` [Compound 38], the IC50 in assay [1] was 2630 nM; in assay [2] it was more than 10 µM; in assay [3] it was more than 10 µM; in assay [4] it was more than 10 µM; in [5], more than 10 µM; in assay [6] it was more than 10 µM. Further, the IC50 in [7] is 3630 nM; in assay [8], more than 10 µM; in [9] it was more than 10 µM; in assay [10], more than 10 µM.
With `CN1CCNc2ncnc3c2/C(=C/Nc2cccc(c2)OCCCCCC1=O)C(=O)N3` [Compound 39], the IC50 was 3720 nM in assay [1]; 7.94 µM in assay [2]; more than 10 µM in assay [3]; more than 10 µM in [4]; 5.62 µM in [5]; more than 10 µM in assay [6]. The IC50 in assay [7] was 282 nM; in assay [8] it was 1.26 µM; in [9], more than 10 µM; in assay [10] it was 3.8 µM.
For the compound `CN1CCNC(=O)CCCOc2cccc(c2)N/C=C2\C(=O)Nc3ncnc1c32` [Compound 40], the IC50 is 4900 nM in [1]; more than 10 µM in assay [2]; more than 10 µM in assay [3]; more than 10 µM in assay [4]; 7.08 µM in [5]; more than 10 µM in [6]. Moreover, the IC50 was 1510 nM in [7], 8.32 µM in assay [8], more than 10 µM in assay [9] and more than 10 µM in assay [10].
For the compound `CN1CCNC(=O)CCCCCOc2cccc(c2)N/C=C2\C(=O)Nc3ncnc1c32` [Compound 41], the IC50 is 1780 nM in [1]; more than 10 µM in assay [2]; more than 10 µM in assay [3]; more than 10 µM in [4]; 5.01 µM in assay [5]; more than 10 µM in assay [6]. Moreover, the IC50 in [7] is 2450 nM; in [8] it was more than 10 µM; in assay [9], more than 10 µM; in [10], more than 10 µM.
As to `CN1CCNc2ncnc3c2/C(=C/Nc2cccc(c2)OCCCCC1=O)C(=O)N3` [Compound 42], the IC50 in assay [1] was 1700 nM; in assay [2], more than 10 µM; in assay [3], more than 10 µM; in assay [4] it was more than 10 µM; in assay [5], 5.89 µM; in [6], more than 10 µM. The IC50 in [7] was 295 nM; in assay [8] it was 1.38 µM; in assay [9], more than 10 µM; in [10], 2.19 µM.
As to `COc1ccc2cc1OCCCCC(=O)N(C)CCNc1ncnc3c1/C(=C/N2)C(=O)N3` [Compound 45], the IC50 in assay [1] is 537 nM; in assay [2], 1.66 µM; in assay [3] it was 2.82 µM; in [4], 9.12 µM; in [5] it was 2.19 µM; in [6] it was more than 10 µM. The IC50 in assay [7] was 120 nM; in [8], 0.24 µM; in [9], more than 10 µM; in [10] it was 1.91 µM.
Turning to `COc1ccc2cc1OCCCCCCC(=O)NCCN(C)c1ncnc3c1/C(=C/N2)C(=O)N3` [Compound 47], the IC50 is 2290 nM in assay [1]; more than 10 µM in assay [2]; more than 10 µM in assay [3]; more than 10 µM in assay [4]; more than 10 µM in assay [5]; more than 10 µM in assay [6]. Further, the IC50 in assay [7] is 4790 nM; in assay [8], 8.71 µM; in [9], more than 10 µM; in assay [10], more than 10 µM.
With `COc1ccc2cc1CN(C)CCCCCC(=O)NCCN(C)c1ncnc3c1/C(=C/N2)C(=O)N3` [Compound 48], the IC50 in assay [1] is more than 10000 nM; in [2], more than 10 µM; in [3], more than 10 µM; in [4], more than 10 µM; in assay [5], more than 10 µM; in assay [6], more than 10 µM. In addition, the IC50 in [7] was more than 10000 nM; in assay [8], more than 10 µM; in assay [9], more than 10 µM; in assay [10], more than 10 µM.
`CN1CCNC(=O)CCCCCCOc2cc(ccc2Cl)N/C=C2\C(=O)Nc3ncnc1c32` [Compound 49]: the IC50 in assay [1] is 7410 nM; in assay [2], more than 10 µM; in assay [3] it was more than 10 µM; in assay [4], more than 10 µM; in assay [5], more than 10 µM; in [6], more than 10 µM. Besides, the IC50 is more than 10000 nM in assay [7], more than 10 µM in assay [8], more than 10 µM in assay [9] and more than 10 µM in assay [10].
As for `COc1ccc2cc1CN(C)CCCCCCC(=O)NCCN(C)c1ncnc3c1/C(=C/N2)C(=O)N3` [Compound 50], the IC50 in assay [1] was more than 10000 nM; in [2], more than 10 µM; in [3], more than 10 µM; in assay [4] it was more than 10 µM; in [5], more than 10 µM; in assay [6], more than 10 µM. For the same compound, the IC50 in assay [7] is more than 10000 nM; in [8] it was more than 10 µM; in assay [9], more than 10 µM; in assay [10] it was more than 10 µM.
For the compound `COc1ccc2cc1CN(C)CCCCC(=O)NCCN(C)c1ncnc3c1/C(=C/N2)C(=O)N3` [Compound 51], the IC50 in [1] is more than 10000 nM; in assay [2] it was more than 10 µM; in assay [3], more than 10 µM; in assay [4], more than 10 µM; in assay [5], more than 10 µM; in assay [6] it was more than 10 µM. In addition, the IC50 in [7] is more than 10000 nM; in assay [8], more than 10 µM; in assay [9] it was more than 10 µM; in [10] it was more than 10 µM.
On to `CN1CCNC(=O)CCCCCOc2cc(ccc2Cl)N/C=C2\C(=O)Nc3ncnc1c32` [Compound 52], for which the IC50 in [1] is 9550 nM; in assay [2] it was 7.24 µM; in [3] it was more than 10 µM; in assay [4] it was more than 10 µM; in assay [5] it was more than 10 µM; in [6], more than 10 µM. Also, the IC50 in assay [7] was 4470 nM; in [8], 6.61 µM; in assay [9], more than 10 µM; in [10], 1.95 µM.
For the compound `CN1CCCN(C)c2ncnc3c2/C(=C/Nc2cccc(c2)OCCCCCCC1=O)C(=O)N3` [Compound 53], the IC50 in assay [1] was 2340 nM; in [2] it was more than 10 µM; in assay [3] it was more than 10 µM; in assay [4], more than 10 µM; in [5], more than 10 µM; in [6], more than 10 µM. For the same compound, the IC50 in assay [7] was 794 nM; in assay [8] it was more than 10 µM; in [9], more than 10 µM; in [10] it was more than 10 µM.
